Patent US20100111908A1, “Induction of Renal Cells for Treatment of Kidney Disease” (priority 2008, published 2010)

Key:
[1] = molecular target: T1, CaR (Homo sapiens, UniProt P41180); details: activation of CaR; Olszak et al., 2000; cited from earlier work
T1 construct: host or cells: monocytes
T1 sequence (P41180 20-1078): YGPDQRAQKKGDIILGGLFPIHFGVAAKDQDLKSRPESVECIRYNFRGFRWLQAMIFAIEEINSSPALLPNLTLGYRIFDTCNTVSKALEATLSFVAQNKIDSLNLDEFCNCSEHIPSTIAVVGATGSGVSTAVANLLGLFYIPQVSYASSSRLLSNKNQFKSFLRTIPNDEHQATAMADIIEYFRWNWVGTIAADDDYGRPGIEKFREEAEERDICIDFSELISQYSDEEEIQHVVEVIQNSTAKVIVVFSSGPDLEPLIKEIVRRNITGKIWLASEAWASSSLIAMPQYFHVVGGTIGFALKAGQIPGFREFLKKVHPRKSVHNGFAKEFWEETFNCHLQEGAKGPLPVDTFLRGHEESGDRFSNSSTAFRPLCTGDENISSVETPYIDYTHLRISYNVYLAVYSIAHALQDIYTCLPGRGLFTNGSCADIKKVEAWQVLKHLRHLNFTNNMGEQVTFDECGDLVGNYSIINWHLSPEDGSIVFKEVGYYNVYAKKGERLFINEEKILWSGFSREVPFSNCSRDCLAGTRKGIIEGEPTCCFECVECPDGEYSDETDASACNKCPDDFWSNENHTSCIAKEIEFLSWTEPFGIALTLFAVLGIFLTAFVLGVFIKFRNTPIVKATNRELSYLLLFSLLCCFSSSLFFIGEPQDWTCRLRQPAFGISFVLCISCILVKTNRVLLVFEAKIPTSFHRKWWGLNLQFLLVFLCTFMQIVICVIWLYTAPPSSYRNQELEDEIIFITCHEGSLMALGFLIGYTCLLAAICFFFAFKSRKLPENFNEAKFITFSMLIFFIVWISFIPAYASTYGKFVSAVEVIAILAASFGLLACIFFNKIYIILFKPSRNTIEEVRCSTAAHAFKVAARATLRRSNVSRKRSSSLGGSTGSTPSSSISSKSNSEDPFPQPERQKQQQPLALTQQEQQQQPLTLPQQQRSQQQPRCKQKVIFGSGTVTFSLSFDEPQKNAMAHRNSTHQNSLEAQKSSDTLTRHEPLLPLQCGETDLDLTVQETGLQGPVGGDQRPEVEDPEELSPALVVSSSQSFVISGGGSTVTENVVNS

[2] = test system: Lin− cells; test: qRT-PCR of renal developmentally regulated genes in induced cells; type: cell-based, mouse; details: TSA 15 nM, 6 h at 2nd stage vs vehicle, cells after 3rd stage
Protocol: Lin^− cells, which include lineage undifferentiated hematopoietic stem cells and progenitor cells, were isolated to 99.8% purity by FACS as described (Lin et al., 2003). Purified Lin^− cells were cultured sequentially in the presence of cytokines including IL-3, IL-6, and stem cell factor for 48 hr (1st stage); nephrogenic factors including retinoic acid, activin-A and BMP7 for 48 hr (2nd stage); and epithelial growth factors including EGF, IGF-1 and HGF for 72 hr (3rd stage). The total induction period is 1 week. Cytokine treatment is known to stimulate HSC to enter the cell cycle and the cells remain as hematopoietic cells after 48 hr in these culture conditions (Luskey et al., 1992; Reddy et al., 1997). The nephrogenic factors that were used can induce differentiation of mouse ES cells into renal epithelial cells as reported by Kim and Dressler (2005). Therefore, the inventors reasoned that nephrogenic factors might induce cycling Lin^− cells to select a renal cell fate. Further treatment of the cells with epithelial growth factors would promote epithelial growth. After the 1st stage, the cells remained small, round, and discrete (FIG. 5B, top left). After the 3rd stage, the cells increased in size and formed floating spheres (FIG. 5B, top right). The inventors took the precaution of only transferring cells in suspension to new culture dishes. The adherent cells that might represent bone marrow stromal/stem cells (MSC) were discarded. In some experiments, the inventors continued the cultures for an additional 7 days after the induction period (total 14 days) and observed an epithelial-like morphology in the cells (FIG. 5B, bottom). In the Examples section, the inventors will use the term “induced cells” to refer to cells after the 3rd stage culture (1 week induction).
(§1) The HDAC inhibitor TSA increases expression of renal developmentally regulated genes in induced cells. Although HDAC inhibitor trichostatin A (TSA) is a non-selective inhibitor of HDACs, TSA only alter 2-10% of the genes tested in multiple cell lines (Gray et al., 2004; Lee et al., 2006b; Mitsiades et al., 2004; Peart et al., 2005).

[3] = test system: Lin− cells isolated from cre^ksp; R26R-EYFP mice; test: Flow cytometry of EYFP+ cells (renal cell conversion); type: cell-based, mouse; details: TSA 15 nM, 6 h at 2nd stage
Protocol: To confirm renal conversion, Lin^− cells were isolated from bitransgenic creksp; R26R-EYFP mice that express EYFP specifically in the tubular epithelial cells of the kidney. […] However, after the 3rd stage, the induced cells expressed EYFP mRNA by RT-PCR analysis (FIG. 7B) and EYFP protein by immunostaining (FIG. 7C).
Treatment with TSA results in a 6-fold increase in EYFP^+ cells. Lin^− cells isolated from cre^ksp; R26R-EYFP mice were treated with vehicle or TSA (15 nM, 6 h) at the 2nd stage and EYFP^+ cells were quantified by flow cytometry analysis.

[4] = test system: cadherin 6, cadherin 16, Lim1, Gdnf and Pax2 promoters; test: ChIP assay of histone acetylation on renal gene promoters; type: cell-based, mouse; details: TSA 15 nM, 6 h at 2nd stage vs vehicle; ChIP after 3rd stage
Text: Increased histone acetylation accompanies cell conversion. To begin to understand the mechanisms of cell conversion and its associated nuclear reprogramming, the inventors examined the possibility of epigenetic regulation by histone modifications and chromatin remodeling. Chromatin modifications were detected using chromatin immunoprecipitation assays (ChIP assays) as described (Shang et al., 2000). Antibodies to acetylated histones H3 and H4 and tri-methylated histone H3 (lysine 9 or K9) were used for immunoprecipitation. […] In contrast, there was no change in tri-methylation of H3K9 on the cadherin 6 promoter (top panel). Acetylation of H3 but not H4 on the cadherin 16 promoter was increased after the 3rd stage. Tri-methylation of H3K9 on the cadherin 16 promoter seemed to increase after the 3rd stage.
as §1

[5] = test system: Lin− cells; test: Cell death in 2nd stage induction culture; type: cell-based, mouse; details: about 15 nM, 6 hr in the 2nd stage
Text: Use of HDAC inhibitors may take into account the fact that high dose and/or long period of HDAC inhibition may induce widespread changes in gene expression. For example, treatment of metanephric organs cultures with HDAC inhibitor induces significant disturbance in the transcription network (Chen et al., 2007).

[6] = test system: lymphoid cell line / multiple cell lines; details: cited from earlier work
[7] = test system: bone marrow stem cells; details: Tayaramma et al., 2006; cited from earlier work
[8] = test system: HDAC; details: Vigushin et al., 2001, cited from earlier work

| Structure (SMILES) | monocyte migration in response to calcium [1] | Cdh 6 -Fold increase ([2]; *p<0.05, n=3) | Cdh 16 -Fold increase ([2]; *p<0.05, n=3) | Gdnf -Fold increase ([2]; *p<0.05, n=3) | Lim1 -Fold increase ([2]; *p<0.05, n=3) | Osr 1 -Fold increase ([2]; *p<0.05, n=3) | Pax2 -Fold increase ([2]; *p<0.05, n=3) | 18s RNA -Fold increase ([2]; control gene, n=3) [Fold] | Six2 -Fold increase ([2]; n=3) [Fold] | increase in EYFP+ cells (cell conversion) vs vehicle [3] [fold] | EYFP+ cells after the 3rd stage ([3]; flow cytometry, vehicle group 6.3%) [%] | histone H3 and H4 acetylation on promoters of renal genes [4] | cell death [5] | proportion of expressed genes altered ([6]; 340 expressed genes in a lymphoid cell line, Van Lint et al., 1996) [%] | proportion of genes tested altered ([6]; multiple cell lines, literature) | differentiation of insulin-producing cells [7] | IC50 of inhibition of HDAC activity [8] | reversibility of inhibition of HDAC activity ([8]; in cell cultures and in vivo) |
| --- | --- | --- | --- | --- | --- | --- | --- | --- | --- | --- | --- | --- | --- | --- | --- | --- | --- | --- |
| COc1cccc([C@@H](C)NCCCc2ccccc2)c1 [NPS R-467] | increases | – | – | – | – | – | – | – | – | – | – | – | – | – | – | – | – | – |
| CC(/C=C/C(=O)NO)=C\[C@@H](C)C(=O)c1ccc(N(C)C)cc1 [TSA, trichostatin A] | – | 16.5* Fold | 4.39* Fold | 5.39* Fold | 8.29* Fold | 14.95* Fold | 3.28* Fold | −0.06 | 1.3 | 6 | 37.9 | increased histone H3 and H4 acetylation | no increase in cell death | 2 | 2-10% | led to differentiation of insulin-producing cells | nanomolar range | reversible |
